Here are results for 1 compound from patent publication US11292807B2 (OCEANS LTD., priority 2015, dated 2022).

The structures appear in SMILES notation.

The test system of the data set is THP-1 (acute monocytic leukemia). In words: CIMA assay, cell viability, THP-1.
Where [1] appears, read: THP-1, 1 ug/mL, listed as 174-13-14-3.
Where [2] appears, read: THP-1, 10 ug/mL, listed as 174-13-14-3.
[3] abbreviates: THP-1, 50 ug/mL, listed as 174-13-14-3.
The mark [4] stands for this setting: THP-1, 100 ug/mL, listed as 174-13-14-3.

The viability is a read-out of living cells in per cent, often relative to untreated cells. As to `CC/C=C\C/C=C\C/C=C\C/C=C\C/C=C\CCCC(=O)OCC(COC1OC(CO)C(O)C(O)C1O)OC(=O)CCCCCCCCCCCCCCC` (stereo not drawn) [Compound 2, MGDG C20:5/C16:0], the viability at 1 µg/mL (Homo sapiens, THP-1, read-out: Average cell viability, THP-1, 1 ug/mL) was 102%. The viability at 10 µg/mL (Homo sapiens, THP-1, read-out: Average cell viability, THP-1, 10 ug/mL) worked out at 101%. Further, for the setting “Homo sapiens, THP-1, read-out: Average cell viability, THP-1, 50 ug/mL”, the viability at 50 µg/mL was 27%. Under “Homo sapiens, THP-1, read-out: Average cell viability, THP-1, 100 ug/mL”, the viability at 100 µg/mL was 17%. Moreover, the “Fold change in viability AVG” value reads like this: (THP-1, 1 ug/mL, listed as 169-14-15-4) 1.16; under setting [1], 1.03; (THP-1, 10 ug/mL, listed as 169-14-15-4) 1.14; under setting [2], 1.00; (THP-1, 50 ug/mL, listed as 169-14-15-4) 0.31; under setting [3], 0.24. Besides, the “Fold change in viability AVG” value by setting is: (THP-1, 100 ug/mL, listed as 169-14-15-4) 0.19; under setting [4], 0.23. Moreover, the Average cell viability under setting [1] was 91%, the Average cell viability under setting [2] was 88%, the Average cell viability under setting [3] came out at 21% and the Average cell viability under setting [4] is 21%. The “THP-1 AVG” value reads like this: (THP-1, sample at 1 ug/mL, listed as 169-14-15-4) 1.16; (THP-1, sample at 1 ug/mL, listed as 174-13-14-3) 1.03; (THP-1, sample at 10 ug/mL, listed as 169-14-15-4) 1.14; (THP-1, sample at 10 ug/mL, listed as 174-13-14-3) 1.00; (THP-1, sample at 50 ug/mL, listed as 169-14-15-4) 0.31; (THP-1, sample at 50 ug/mL, listed as 174-13-14-3) 0.24. The “THP-1 AVG” value (THP-1, sample at 100 ug/mL, listed as 169-14-15-4) is given as 0.19 and the “THP-1 AVG” value (THP-1, sample at 100 ug/mL, listed as 174-13-14-3) is listed as 0.23.
